Experimental data: patent publication US6228373A, “Peptides with immunomodulatory effects” (priority 1995, dated 2001)
Positions of bridges follow the written chain, without caps; N, C: chain ends. Residues, ends and D or L forms follow the SMILES beside them. Chains are numbered I, II in the order given.

Key:
[1] = tested on: rat spontaneously developed mammary carcinoma cells; experiment: Effects of peptides on tumour growth; assay type: in vivo; conditions: Wistar rats, subcutaneous mammary carcinoma, gavage once a day, all dose levels tested
Description: 10^4 rat spontaneously developed mammary carcinoma cells in isotonic saline and 5% normal syngeneic rat serum were inoculated subcutaneously in the right hindlegs of Wistar rats (8 per group). Tumour size was estimated by palpation and caliper measurements of a first diameter (a), being the largest diameter, and the one (b) perpendicular to the first. The volume of the tumour was calculated using the formula: V=0.4 ab^2.
Tumour volume is given in mm^3 as a median for each group of rats (8 per group).
Drug and control (isotonic saline) were administered by gavage (oesophagealtube) once a day (a.m.) on each of days 4-8 and 11-15 for peptides
i) Gly-Pro-Cys-Cys-Pro-Gly (SEQ ID NO:20; 3 μmol/kg/day); ii) Ala-Pro-Cys-Cys-Val-Pro (SEQ ID NO:21; 0.03 and […]);

[2] = tested on: mice (DTH test as per Example 43); experiment: DTH test, comparison of different routes of administration; assay type: in vivo
Description: The mice were sensitized, Day 0, by epicutaneous application of 150 μl of an absolute ethanol-acetone (3:1) solution containing 3% OXA on the shaved abdomen. Treatment with peptides 1 to 41 inclusive, or vehicle (phosphate buffer, pH 7.4, containing a mixture of Buffer A and Buffer B in the proportion 63%:37% B (Buffer A: Na2 HPO4, 0.89 g/100 ml, EDTA 0.05 g/100 ml; Buffer B: NaH2 PO4, 0.69 g/100 ml, EDTA 0.05 g/100 ml) was initiated by oral feeding immediately after sensitization and continued once daily (a.m) until Day 6. Seven days after sensitization, both ears of all mice were challenged on both sides by topical application of 20 μl 1% OXA dissolved in peanut oil. Ear thickness was measured prior to and at 24 hours or 48 hours after challenge using an Oditest spring calliper. Challenges and measurements were performed under light pentobarbital anaesthesia.
The intensity of the DTH reactions was measured according to the method described by van Loveren H., et al. (1984) J. Immunol. Methods 67: 311 and expressed according to the formula: Tt24/48 -Tt0 μm units, where t0, t24 and t48 represent the ear thickness at time 0, +24 hrs or +48 hrs after challenge respectively, in individual tests (T). The results are expressed as the mean +/- S.E.M.. The level of significance between means of the groups is obtained by Student's two-tailed t-test. […]
Peptide (Peptide No. 4-derived from SEQ ID NO:24) was administered to mice (groups of 10) orally and by parenteral injection (intravenous and subcutaneous injection) at doses of from 0.0003 μmol/kg body weight through to 3.0 μmol/kg body weight as per example 43. […] The mean and standard error of the mean for each group of mice (10 per group) was recorded.
Peptide (SEQ ID NO:24, dimerized as shown in Box 36 of Table 1) was administered to mice (groups of 10) at doses of 0.03 μmol/kg body weight and 3.0 μmol/kg body weight. […] The mean and standard error of the mean for each group of mice (10 per group) was calculated.

[3] = 0.03 and 3.0 μmol/kg body weight

Structure (SMILES): NCC(=O)N1CCC[C@H]1C(=O)N[C@@H](CS)C(=O)N[C@@H](CS)C(=O)N1CCC[C@H]1C(=O)NCC(=O)O [Peptide 1, Gly-Pro-Cys-Cys-Pro-Gly] (H-GPCCPG-OH)
- tumour volume compared with the control [1]: marked decrease in tumour volume

Structure (SMILES): CC[C@H](C)[C@H](NC(=O)[C@@H](N)C(C)C)C(=O)N[C@H]1CSSC[C@@H](C(=O)N[C@@H](CC(C)C)C(=O)N[C@H](C(=O)O)[C@@H](C)O)NC1=O [SEQ ID NO:26] (H-VICCLT-OH; disulfide 3-4)
- tumour volume compared with the control [1]: marked decrease in tumour volume

Structure (SMILES): O=C(CNC(=O)[C@@H]1CCCN1)N[C@H]1CSSC[C@@H](C(=O)NCC(=O)N2CCC[C@H]2C(=O)O)NC1=O [Peptide 4] (H-PGCCGP-OH; disulfide 3-4)
- immunomodulatory response, oral administration versus other parenteral means ([2]; 0.0003 to 3.0 μmol/kg body weight, oral vs intravenous and subcutaneous injection): more marked immunomodulatory response

Structure (SMILES): O=C(CNC(=O)[C@@H]1CCCN1)N[C@H]1CSSC[C@H](NC(=O)CNC(=O)[C@@H]2CCCN2)C(=O)N[C@H](C(=O)NCC(=O)N2CCC[C@H]2C(=O)O)CSSC[C@@H](C(=O)NCC(=O)N2CCC[C@H]2C(=O)O)NC1=O [Peptide 36] (I: H-PGCCGP-OH / II: H-PGCCGP-OH; disulfide I:3-II:3, I:4-II:4)
- immunomodulatory effect in the DTH test relative to the control [2, 3]: significant immunomodulatory effect
- reaction by oral route relative to parenteral routes at the same dosage [2, 3]: stronger reaction
